Molecular target: T1, APOL1 (Homo sapiens, UniProt O14791)
T1 sequence (O14791 1-398 S342G/I384M): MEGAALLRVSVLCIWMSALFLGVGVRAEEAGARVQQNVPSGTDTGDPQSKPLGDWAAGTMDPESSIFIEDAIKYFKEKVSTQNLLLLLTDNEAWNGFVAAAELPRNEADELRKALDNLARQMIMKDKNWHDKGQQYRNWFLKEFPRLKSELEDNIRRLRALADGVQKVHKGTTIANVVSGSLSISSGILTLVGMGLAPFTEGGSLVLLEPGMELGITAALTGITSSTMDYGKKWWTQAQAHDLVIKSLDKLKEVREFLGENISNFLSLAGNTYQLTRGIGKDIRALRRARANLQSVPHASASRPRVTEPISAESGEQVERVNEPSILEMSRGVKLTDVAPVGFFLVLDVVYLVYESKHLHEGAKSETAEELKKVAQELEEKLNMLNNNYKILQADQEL
Assay: MultiTox-Fluor Multiplex Cytotoxicity Assay in tet-inducible APOL1 T-REx-HEK293 cells (cell rescue, ratio of dead to live cells)
Type: cell-based
Details: tet-inducible transgenic APOL1 T-REx-HEK293 cell lines, 50 ng/mL tet, 24 hours; read-out: IP50 (i.e., IC50 for cell proliferation)
Outline: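 T-REx-HEK293 cells with tet-inducible APOL1 were treated with compound (10 μM top, 10-point 3-fold dilution, duplicate) plus 50 ng/mL tetracycline for 24 h at 37° C, in DMEM with 2% tet-free FBS. MultiTox-Fluor protease signals gave a dead/live ratio, normalized to no tet (100% viability) and tet alone (0%).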

Row | SMILES | IC50
1 | Cc1cnccc1CN1CC[C@]2(C[C@@H]1C)OCCc1cc(Cl)sc12 [Compound 693] | 0.5 to 1 µM
2 | C#CC(C)N1CC[C@]2(C[C@@H]1C)OCCc1cc(Cl)sc12 (stereo partly drawn) [Compound 694, (2′S, 7R)-2-chloro-2′-methyl-1′-(1-methylprop-2-ynyl)spiro[4,5-dihydrothieno[2,3-c]pyran-7,4′-piperidine]] | 0.5 to 1 µM
3 | C[C@H]1C[C@]2(CCN1Cc1cn(CCS(C)(=O)=O)nn1)OCCc1cc(Cl)sc12 [Compound 695, (2′S,7S)-2-chloro-2′-methyl-1′-[[1-(2-methylsulfonylethyl)triazol-4-yl]methyl]spiro[4,5-dihydrothieno[2,3-c]pyran-7,4′-piperidine]] | 0.5 to 1 µM
4 | C[C@H]1C[C@@]2(CCN1Cc1cn(CCS(C)(=O)=O)nn1)OCCc1cc(Cl)sc12 [Compound 696, (2′S, 7R)-2-chloro-2′-methyl-1′-[[1-(2-methylsulfonylethyl)triazol-4-yl]methyl]spiro[4,5-dihydrothieno[2,3-c]pyran-7,4-piperidine]] | 0.1 to 0.5 µM
5 | C[C@H]1C[C@@]2(CCN1Cc1cnn(CCS(C)(=O)=O)c1)OCCc1cc(Cl)sc12 [Compound 697, (2′S, 7R)-2-chloro-2′-methyl-1′-[[1-(2-methylsulfonylethyl)pyrazol-4-yl]methyl]spiro[4,5-dihydrothieno[2,3-c]pyran-7,4′-piperidine]] | < 0.1 µM
6 | C[C@H]1C[C@@]2(CCN1Cc1cn[nH]c1)OCCc1cc(Cl)sc12 [Compound 698, (2′S, 7R)-2-chloro-2′-methyl-1′-(1H-pyrazol-4-ylmethyl)spiro[4,5-dihydrothieno[2,3-c]pyran-7,4′-piperidine]] | < 0.1 µM
7 | COCCn1cc(CN2CC[C@]3(C[C@@H]2C)OCCc2cc(Cl)sc23)cn1 [Compound 699, (2S,7R)-2′-chloro-1-((1-(2-methoxyethyl)-1H-pyrazol-4-yl)methyl)-2-methyl-4′,5′-dihydrospiro[piperidine-4,7′-thieno[2,3-c]pyran]] | < 0.1 µM
8 | C[C@H]1C[C@@]2(CCN1Cc1cnn(CC(=O)N(C)C)c1)OCCc1cc(Cl)sc12 [Compound 700] | < 0.1 µM
9 | C[C@H]1C[C@@]2(CCN1Cc1cnn(Cc3cccnc3)c1)OCCc1cc(Cl)sc12 [Compound 701] | < 0.1 µM
10 | CCn1cc(CN2CC[C@]3(C[C@@H]2C)OCCc2cc(Cl)sc23)cn1 [Compound 702] | < 0.1 µM
11 | CNC(=O)Cn1cc(CN2CC[C@]3(C[C@@H]2C)OCCc2cc(Cl)sc23)cn1 [Compound 703] | < 0.1 µM
12 | CC(C)Cn1cc(CN2CC[C@]3(C[C@@H]2C)OCCc2cc(Cl)sc23)cn1 [Compound 704] | 0.1 to 0.5 µM
13 | C[C@H]1C[C@@]2(CCN1Cc1cnn(CC(N)=O)c1)OCCc1cc(Cl)sc12 [Compound 705] | 0.1 to 0.5 µM
14 | C[C@H]1C[C@@]2(CCN1Cc1cnn(CC3CCOCC3)c1)OCCc1cc(Cl)sc12 [Compound 706] | < 0.1 µM
15 | C[C@H]1C[C@@]2(CCN1Cc1cnn(Cc3ccc(F)cc3)c1)OCCc1cc(Cl)sc12 [Compound 707] | < 0.1 µM
16 | C[C@H]1C[C@@]2(CCN1C[C@H](O)C(N)=O)OCCc1cc(Cl)sc12 [Compound 708, (2S)-3-[(2′S, 7R)-2-chloro-2′-methyl-spiro[4,5-dihydrothieno[2,3-c]pyran-7,4′-piperidine]-1′-yl]-2-hydroxy-propanamide] | 0.1 to 0.5 µM
17 | C[C@H]1C[C@@]2(CCN1C[C@@H](O)C(N)=O)OCCc1cc(Cl)sc12 [Compound 709, (2R)-3-[(2′S, 7R)-2-chloro-2′-methyl-spiro[4,5-dihydrothieno[2,3-c]pyran-7,4′-piperidine]-1′-yl]-2-hydroxy-propanamide] | 0.1 to 0.5 µM
18 | CNC(=O)[C@@H](O)CN1CC[C@]2(C[C@@H]1C)OCCc1cc(Cl)sc12 [Compound 710, (2S)-3-[(2′S, 7R)-2-chloro-2′-methyl-spiro[4,5-dihydrothieno[2,3-c]pyran-7,4′-piperidine]-1′-yl]-2-hydroxy-N-methyl-propanamide] | 0.5 to 1 µM
19 | C[C@H]1C[C@@]2(CCN1C[C@H](O)C(=O)N(C)C)OCCc1cc(Cl)sc12 [Compound 711, (2S)-3-[(2′S, 7R)-2-chloro-2′-methyl-spiro[4,5-dihydrothieno[2,3-c]pyran-7,4′-piperidine]-1′-yl]-2-hydroxy-N,N-dimethyl-propanamide] | 0.1 to 0.5 µM

Row | SMILES | IC50
20 | C[C@H]1C[C@@]2(CCN1Cc1cccc(Cl)c1O)OCCc1c2sc(Cl)c1CO [Compound 712, 2-chloro-6-[[(2′S, 7R)-2-chloro-3-(hydroxymethyl)-2′-methyl-spiro[4,5-dihydrothieno[2,3-c]pyran-7,4′-piperidine]-1′-yl]methyl]phenol] | 0.5 to 1 µM
21 | C[C@H]1C[C@@]2(CCN1Cc1ccccc1F)OCCc1c2sc(Cl)c1CO [Compound 713] | 0.1 to 0.5 µM
22 | C[C@H]1C[C@@]2(CCN1Cc1ccc(N3CCCC3=O)cc1)OCCc1c2sc(Cl)c1CO [Compound 714] | < 0.1 µM
23 | C[C@H]1C[C@@]2(CCN1Cc1ccc(OCCO)cc1)OCCc1c2sc(Cl)c1CO [Compound 715] | < 0.1 µM
24 | COc1cc(OCC(N)=O)ccc1CN1CC[C@]2(C[C@@H]1C)OCCc1c2sc(Cl)c1CO [Compound 716] | 0.1 to 0.5 µM
25 | Cc1nccn1-c1ccc(CN2CC[C@]3(C[C@@H]2C)OCCc2c3sc(Cl)c2CO)cc1 [Compound 717] | 0.1 to 0.5 µM
26 | C[C@H]1C[C@@]2(CCN1Cc1cccc(OCC(N)=O)c1)OCCc1c2sc(Cl)c1CO [Compound 718] | 0.1 to 0.5 µM
27 | C[C@H]1C[C@@]2(CCN1Cc1cn(C)nn1)OCCc1c2sc(Cl)c1CO [Compound 719] | 0.1 to 0.5 µM
28 | COc1cnc(CN2CC[C@]3(C[C@@H]2C)OCCc2c3sc(Cl)c2CO)cn1 [Compound 720] | 0.1 to 0.5 µM
29 | C[C@H]1C[C@@]2(CCN1CCCn1cccn1)OCCc1c2sc(Cl)c1CO [Compound 721] | 0.5 to 1 µM
30 | Cc1cncc(CN2CC[C@]3(C[C@@H]2C)OCCc2c3sc(Cl)c2CO)c1 [Compound 723] | 0.1 to 0.5 µM
31 | C[C@H]1C[C@@]2(CCN1Cc1cccc(OCCO)c1)OCCc1c2sc(Cl)c1CO [Compound 725] | 0.1 to 0.5 µM
32 | C[C@H]1C[C@@]2(CCN1Cc1ccc(F)cn1)OCCc1c2sc(Cl)c1CO [Compound 726] | 0.5 to 1 µM
33 | COc1cncc(CN2CC[C@]3(C[C@@H]2C)OCCc2c3sc(Cl)c2CO)c1 [Compound 727] | 0.1 to 0.5 µM
34 | C[C@H]1C[C@@]2(CCN1Cc1cnc(N3CCOCC3)nc1)OCCc1c2sc(Cl)c1CO [Compound 728] | < 0.1 µM
35 | COc1ncc(CN2CC[C@]3(C[C@@H]2C)OCCc2c3sc(Cl)c2CO)cn1 [Compound 729] | < 0.1 µM
36 | CNC(=O)c1cccc(CN2CC[C@]3(C[C@@H]2C)OCCc2c3sc(Cl)c2CO)c1 [Compound 730] | 0.1 to 0.5 µM
37 | Cc1cncc(N2CCC(CN3CC[C@]4(C[C@@H]3C)OCCc3c4sc(Cl)c3CO)CC2)n1 [Compound 731] | 0.5 to 1 µM
38 | Cc1ccc(CN2CC[C@]3(C[C@@H]2C)OCCc2c3sc(Cl)c2CO)c(C)n1 [Compound 732] | 0.5 to 1 µM

Row | SMILES | IC50
39 | CCc1ncc(CN2CC[C@]3(C[C@@H]2C)OCCc2c3sc(Cl)c2CO)cn1 [Compound 733] | 0.1 to 0.5 µM
40 | C[C@H]1C[C@@]2(CCN1Cc1ccc(S(C)(=O)=O)nc1)OCCc1c2sc(Cl)c1CO [Compound 734] | 0.1 to 0.5 µM
41 | C[C@H]1C[C@@]2(CCN1Cc1ccncc1F)OCCc1c2sc(Cl)c1CO [Compound 735] | 0.5 to 1 µM
42 | Cc1ncccc1CN1CC[C@]2(C[C@@H]1C)OCCc1c2sc(Cl)c1CO [Compound 736] | 0.5 to 1 µM
43 | C[C@H]1C[C@@]2(CCN1Cc1cnccn1)OCCc1c2sc(Cl)c1CO [Compound 737] | 0.5 to 1 µM
44 | Cc1ncc(CN2CC[C@]3(C[C@@H]2C)OCCc2c3sc(Cl)c2CO)cn1 [Compound 738] | 0.1 to 0.5 µM
45 | Cc1cccc(CN2CC[C@]3(C[C@@H]2C)OCCc2c3sc(Cl)c2CO)n1 [Compound 739] | 0.5 to 1 µM
46 | C[C@H]1C[C@@]2(CCN1Cc1ncn3ccccc13)OCCc1c2sc(Cl)c1CO [Compound 740] | 0.5 to 1 µM
47 | COc1cc(CN2CC[C@]3(C[C@@H]2C)OCCc2c3sc(Cl)c2CO)ccc1OCC(N)=O [Compound 742] | < 0.1 µM
48 | C[C@H]1C[C@@]2(CCN1Cc1ccc(C(=O)N(C)C)cc1)OCCc1c2sc(Cl)c1CO [Compound 743] | 0.1 to 0.5 µM
49 | COc1ccc(CN2CC[C@]3(C[C@@H]2C)OCCc2c3sc(Cl)c2CO)cc1OCC(N)=O [Compound 744] | < 0.1 µM
50 | COCCc1ncc(CN2CC[C@]3(C[C@@H]2C)OCCc2c3sc(Cl)c2CO)cn1 [Compound 745] | 0.1 to 0.5 µM
51 | C[C@H]1C[C@@]2(CCN1CC1(C)COC1)OCCc1c2sc(Cl)c1CO [Compound 746] | 0.5 to 1 µM
52 | C[C@H]1C[C@@]2(CCN1CC1CCN(S(C)(=O)=O)CC1)OCCc1c2sc(Cl)c1CO [Compound 748] | 0.1 to 0.5 µM
53 | C[C@H]1C[C@@]2(CCN1Cc1cnn(CCS(C)(=O)=O)c1)OCCc1c2sc(Cl)c1CO [Compound 754] | < 0.1 µM
54 | C[C@H]1C[C@@]2(CCN1Cc1ccc(F)cc1)OCCc1c2sc(Cl)c1CO [Compound 755] | 0.1 to 0.5 µM
55 | C[C@H]1C[C@@]2(CCN1Cc1cccc(F)c1)OCCc1c2sc(Cl)c1CO [Compound 756] | 0.1 to 0.5 µM
56 | C[C@H]1C[C@@]2(CCN1Cc1cccnc1)OCCc1c2sc(Cl)c1CO [Compound 757] | < 0.1 µM
57 | C[C@H]1C[C@@]2(CCN1Cc1ccccn1)OCCc1c2sc(Cl)c1CO [Compound 758] | 0.5 to 1 µM

— US20250171459A1, “2-METHYL-4',5'-DIHYDROSPIRO[PIPERIDINE-4,7'-THIENO[2,3-C]PYRAN] DERIVATIVES AS INHIBITORS OF APOL1 AND METHODS OF USING SAME” (Vertex Pharmaceuticals Incorporated, priority 2022, published 2025)
